Results: publication PMC5666424, “Marine-Derived 2-Aminoimidazolone Alkaloids. Leucettamine B-Related Polyandrocarpamines Inhibit Mammalian and Protozoan DYRK & CLK Kinases” (Marine Drugs, 2017)

Experiments:
Assay in all cases: KinomeScan
Assay type in all cases: binding
Conditions in all cases: 1 μM
[1] = biological target: T1, ABL1(E255K)-phosphorylated (Homo sapiens, UniProt P00519, E255K)
T1 construct: purchased DiscoverX (KINOMEscan)

[2] = biological target: T2, ABL1(F317I)-phosphorylated (Homo sapiens, UniProt P00519, F317I)
T2 construct: purchased DiscoverX (KINOMEscan)

ABL1-nonphosphorylated = biological target: T3, ABL1-nonphosphorylated (Homo sapiens, UniProt P00519)
T3 construct: purchased DiscoverX (KINOMEscan)

ADCK3 = biological target: T4, ADCK3 (Homo sapiens, UniProt Q8NI60)
T4 construct: purchased DiscoverX (KINOMEscan)

AURKA = biological target: T5, AURKA (Homo sapiens, UniProt O14965)
T5 construct: purchased DiscoverX (KINOMEscan)

BMPR1B = biological target: T6, BMPR1B (Homo sapiens, UniProt O00238)
T6 construct: purchased DiscoverX (KINOMEscan)

CAMK1G = biological target: T7, CAMK1G (Homo sapiens, UniProt Q96NX5)
T7 construct: purchased DiscoverX (KINOMEscan)

CDK2 = biological target: T8, CDK2 (Homo sapiens, UniProt P24941)
T8 construct: purchased DiscoverX (KINOMEscan)

CHEK2 = biological target: T9, CHEK2 (Homo sapiens, UniProt O96017)
T9 construct: purchased DiscoverX (KINOMEscan)

CSNK1E = biological target: T10, CSNK1E (Homo sapiens, UniProt P49674)
T10 construct: purchased DiscoverX (KINOMEscan)

CSNK1G1 = biological target: T11, CSNK1G1 (Homo sapiens, UniProt Q9HCP0)
T11 construct: purchased DiscoverX (KINOMEscan)

DAPK1 = biological target: T12, DAPK1 (Homo sapiens, UniProt P53355)
T12 construct: purchased DiscoverX (KINOMEscan)

DCAMKL2 = biological target: T13, DCAMKL2 (Homo sapiens, UniProt Q8N568)
T13 construct: purchased DiscoverX (KINOMEscan)

DCAMKL3 = biological target: T14, DCAMKL3 (Homo sapiens, UniProt Q9C098)
T14 construct: purchased DiscoverX (KINOMEscan)

EGFR = biological target: T15, EGFR (Homo sapiens, UniProt P00533)
T15 construct: purchased DiscoverX (KINOMEscan)

EGFR(L858R) = biological target: T16, EGFR(L858R) (Homo sapiens, UniProt P00533, L858R)
T16 construct: purchased DiscoverX (KINOMEscan)

EIF2AK1 = biological target: T17, EIF2AK1 (Homo sapiens, UniProt Q9BQI3)
T17 construct: purchased DiscoverX (KINOMEscan)

EPHA7 = biological target: T18, EPHA7 (Homo sapiens, UniProt Q15375)
T18 construct: purchased DiscoverX (KINOMEscan)

EPHB3 = biological target: T19, EPHB3 (Homo sapiens, UniProt P54753)
T19 construct: purchased DiscoverX (KINOMEscan)

ERK8 = biological target: T20, ERK8 (Homo sapiens, UniProt Q8TD08)
T20 construct: purchased DiscoverX (KINOMEscan)

FGFR1 = biological target: T21, FGFR1 (Homo sapiens, UniProt P11362)
T21 construct: purchased DiscoverX (KINOMEscan)

GRK4 = biological target: T22, GRK4 (Homo sapiens, UniProt P32298)
T22 construct: purchased DiscoverX (KINOMEscan)

HIPK2 = biological target: T23, HIPK2 (Homo sapiens, UniProt Q9H2X6)
T23 construct: purchased DiscoverX (KINOMEscan)

IGF1R = biological target: T24, IGF1R (Homo sapiens, UniProt P08069)
T24 construct: purchased DiscoverX (KINOMEscan)

JNK1 = biological target: T25, JNK1 (Homo sapiens, UniProt P45983)
T25 construct: purchased DiscoverX (KINOMEscan)

JNK2 = biological target: T26, JNK2 (Homo sapiens, UniProt P45984)
T26 construct: purchased DiscoverX (KINOMEscan)

JNK3 = biological target: T27, JNK3 (Homo sapiens, UniProt P53779)
T27 construct: purchased DiscoverX (KINOMEscan)

KIT(V559D) = biological target: T28, KIT(V559D) (Homo sapiens, UniProt P10721, V559D)
T28 construct: purchased DiscoverX (KINOMEscan)

LRRK2(G2019S) = biological target: T29, LRRK2(G2019S) (Homo sapiens, UniProt Q5S007, G2019S)
T29 construct: purchased DiscoverX (KINOMEscan)

MAP3K1 = biological target: T30, MAP3K1 (Homo sapiens, UniProt Q13233)
T30 construct: purchased DiscoverX (KINOMEscan)

MST1 = biological target: T31, MST1 (Homo sapiens, UniProt Q13043)
T31 construct: purchased DiscoverX (KINOMEscan)

MST1R = biological target: T32, MST1R (Homo sapiens, UniProt Q04912)
T32 construct: purchased DiscoverX (KINOMEscan)

MYO3B = biological target: T33, MYO3B (Homo sapiens, UniProt Q8WXR4)
T33 construct: purchased DiscoverX (KINOMEscan)

SIK = biological target: T34, SIK (Homo sapiens, UniProt P57059)
T34 construct: purchased DiscoverX (KINOMEscan)

TTK = biological target: T35, TTK (Homo sapiens, UniProt P33981)
T35 construct: purchased DiscoverX (KINOMEscan)

TYRO3 = biological target: T36, TYRO3 (Homo sapiens, UniProt Q06418)
T36 construct: purchased DiscoverX (KINOMEscan)

p38-alpha = biological target: T37, p38-alpha (Homo sapiens, UniProt Q16539)
T37 construct: purchased DiscoverX (KINOMEscan)

T12 sequence (P53355 whole entry): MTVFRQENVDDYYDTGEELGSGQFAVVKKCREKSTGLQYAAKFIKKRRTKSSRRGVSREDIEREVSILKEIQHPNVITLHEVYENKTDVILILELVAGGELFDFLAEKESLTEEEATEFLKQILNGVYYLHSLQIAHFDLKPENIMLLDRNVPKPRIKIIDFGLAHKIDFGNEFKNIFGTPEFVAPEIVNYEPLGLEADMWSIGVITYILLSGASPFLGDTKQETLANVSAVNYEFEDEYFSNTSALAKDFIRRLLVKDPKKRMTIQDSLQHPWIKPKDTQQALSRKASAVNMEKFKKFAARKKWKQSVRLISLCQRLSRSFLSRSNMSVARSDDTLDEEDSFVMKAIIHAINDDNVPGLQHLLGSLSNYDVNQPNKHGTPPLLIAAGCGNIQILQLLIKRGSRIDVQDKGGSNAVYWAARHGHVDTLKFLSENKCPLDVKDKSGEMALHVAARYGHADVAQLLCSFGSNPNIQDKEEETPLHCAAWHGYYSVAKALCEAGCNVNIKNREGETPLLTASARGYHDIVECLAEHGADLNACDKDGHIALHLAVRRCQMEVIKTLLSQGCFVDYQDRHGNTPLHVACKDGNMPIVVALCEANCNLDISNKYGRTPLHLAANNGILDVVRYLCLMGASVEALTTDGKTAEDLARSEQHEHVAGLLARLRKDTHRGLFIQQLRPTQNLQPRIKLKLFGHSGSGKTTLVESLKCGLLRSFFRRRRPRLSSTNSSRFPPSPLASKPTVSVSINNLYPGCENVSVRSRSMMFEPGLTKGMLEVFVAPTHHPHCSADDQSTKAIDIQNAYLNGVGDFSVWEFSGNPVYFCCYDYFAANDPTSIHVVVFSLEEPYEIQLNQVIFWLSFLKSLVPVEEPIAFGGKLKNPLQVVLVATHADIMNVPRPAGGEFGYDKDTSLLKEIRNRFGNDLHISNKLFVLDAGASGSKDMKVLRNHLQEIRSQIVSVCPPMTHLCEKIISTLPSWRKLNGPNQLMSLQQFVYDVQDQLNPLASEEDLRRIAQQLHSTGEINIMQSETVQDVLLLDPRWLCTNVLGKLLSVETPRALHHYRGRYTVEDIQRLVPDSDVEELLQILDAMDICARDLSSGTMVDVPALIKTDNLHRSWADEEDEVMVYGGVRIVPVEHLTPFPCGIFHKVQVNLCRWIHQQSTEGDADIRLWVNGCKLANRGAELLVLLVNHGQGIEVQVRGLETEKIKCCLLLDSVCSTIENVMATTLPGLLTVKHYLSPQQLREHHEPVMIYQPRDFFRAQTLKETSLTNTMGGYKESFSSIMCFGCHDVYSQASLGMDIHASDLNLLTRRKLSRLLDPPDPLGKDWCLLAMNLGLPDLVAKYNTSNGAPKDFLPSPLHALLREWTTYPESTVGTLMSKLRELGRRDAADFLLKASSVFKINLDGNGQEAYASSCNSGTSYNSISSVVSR
T23 sequence (Q9H2X6 whole entry): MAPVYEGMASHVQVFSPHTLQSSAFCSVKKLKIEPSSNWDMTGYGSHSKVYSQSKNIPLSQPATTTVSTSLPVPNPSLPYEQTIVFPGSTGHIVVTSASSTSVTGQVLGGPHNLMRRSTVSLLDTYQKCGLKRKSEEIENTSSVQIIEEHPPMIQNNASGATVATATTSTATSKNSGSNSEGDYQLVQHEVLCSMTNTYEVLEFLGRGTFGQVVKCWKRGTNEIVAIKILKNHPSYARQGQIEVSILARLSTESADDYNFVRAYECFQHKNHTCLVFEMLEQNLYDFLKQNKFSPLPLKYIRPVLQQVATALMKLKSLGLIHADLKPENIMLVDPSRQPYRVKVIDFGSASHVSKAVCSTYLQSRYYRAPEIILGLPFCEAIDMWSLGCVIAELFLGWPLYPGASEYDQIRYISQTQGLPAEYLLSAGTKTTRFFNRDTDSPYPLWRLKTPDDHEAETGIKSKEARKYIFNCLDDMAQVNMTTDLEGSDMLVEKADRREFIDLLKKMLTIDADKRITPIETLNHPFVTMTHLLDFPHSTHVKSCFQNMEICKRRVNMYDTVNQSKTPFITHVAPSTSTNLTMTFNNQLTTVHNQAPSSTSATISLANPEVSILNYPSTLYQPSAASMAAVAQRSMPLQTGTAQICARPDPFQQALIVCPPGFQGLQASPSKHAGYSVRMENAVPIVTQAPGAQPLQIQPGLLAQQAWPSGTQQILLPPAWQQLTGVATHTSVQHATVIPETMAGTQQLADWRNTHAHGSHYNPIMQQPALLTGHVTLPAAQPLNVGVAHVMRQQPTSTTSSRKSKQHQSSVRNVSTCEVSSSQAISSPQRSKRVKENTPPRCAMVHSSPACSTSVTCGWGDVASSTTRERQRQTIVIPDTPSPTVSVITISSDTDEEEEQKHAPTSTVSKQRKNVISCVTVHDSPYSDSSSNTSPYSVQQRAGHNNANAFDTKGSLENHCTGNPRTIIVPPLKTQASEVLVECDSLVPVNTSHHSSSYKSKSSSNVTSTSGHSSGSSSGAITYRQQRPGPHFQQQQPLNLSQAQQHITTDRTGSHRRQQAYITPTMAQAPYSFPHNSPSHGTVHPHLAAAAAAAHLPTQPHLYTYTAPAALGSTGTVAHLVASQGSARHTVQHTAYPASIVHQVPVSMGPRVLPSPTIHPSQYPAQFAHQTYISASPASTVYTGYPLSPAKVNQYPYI
T25 sequence (P45983 whole entry): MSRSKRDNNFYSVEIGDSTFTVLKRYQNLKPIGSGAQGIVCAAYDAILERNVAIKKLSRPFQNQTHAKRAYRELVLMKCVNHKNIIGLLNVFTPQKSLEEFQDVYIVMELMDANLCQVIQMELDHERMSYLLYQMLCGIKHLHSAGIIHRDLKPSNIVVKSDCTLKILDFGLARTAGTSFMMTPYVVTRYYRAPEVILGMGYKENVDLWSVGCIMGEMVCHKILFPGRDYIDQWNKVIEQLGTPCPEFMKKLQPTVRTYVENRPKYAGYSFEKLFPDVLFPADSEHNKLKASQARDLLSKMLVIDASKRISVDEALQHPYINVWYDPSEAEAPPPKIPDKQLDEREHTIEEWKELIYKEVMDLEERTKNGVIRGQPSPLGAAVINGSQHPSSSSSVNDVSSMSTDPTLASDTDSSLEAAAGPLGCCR
T27 sequence (P53779 whole entry): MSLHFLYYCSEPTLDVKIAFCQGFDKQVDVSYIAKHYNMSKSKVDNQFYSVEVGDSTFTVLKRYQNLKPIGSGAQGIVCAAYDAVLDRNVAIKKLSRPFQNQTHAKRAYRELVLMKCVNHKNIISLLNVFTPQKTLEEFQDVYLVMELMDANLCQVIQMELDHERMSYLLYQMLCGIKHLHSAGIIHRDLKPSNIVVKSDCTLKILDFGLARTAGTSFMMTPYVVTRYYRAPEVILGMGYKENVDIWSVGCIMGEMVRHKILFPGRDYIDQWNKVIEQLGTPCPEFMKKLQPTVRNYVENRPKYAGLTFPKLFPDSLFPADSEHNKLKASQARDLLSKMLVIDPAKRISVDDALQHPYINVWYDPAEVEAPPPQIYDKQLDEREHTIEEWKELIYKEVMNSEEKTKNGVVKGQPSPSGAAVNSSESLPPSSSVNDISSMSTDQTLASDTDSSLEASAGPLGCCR
T36 sequence (Q06418 41-890): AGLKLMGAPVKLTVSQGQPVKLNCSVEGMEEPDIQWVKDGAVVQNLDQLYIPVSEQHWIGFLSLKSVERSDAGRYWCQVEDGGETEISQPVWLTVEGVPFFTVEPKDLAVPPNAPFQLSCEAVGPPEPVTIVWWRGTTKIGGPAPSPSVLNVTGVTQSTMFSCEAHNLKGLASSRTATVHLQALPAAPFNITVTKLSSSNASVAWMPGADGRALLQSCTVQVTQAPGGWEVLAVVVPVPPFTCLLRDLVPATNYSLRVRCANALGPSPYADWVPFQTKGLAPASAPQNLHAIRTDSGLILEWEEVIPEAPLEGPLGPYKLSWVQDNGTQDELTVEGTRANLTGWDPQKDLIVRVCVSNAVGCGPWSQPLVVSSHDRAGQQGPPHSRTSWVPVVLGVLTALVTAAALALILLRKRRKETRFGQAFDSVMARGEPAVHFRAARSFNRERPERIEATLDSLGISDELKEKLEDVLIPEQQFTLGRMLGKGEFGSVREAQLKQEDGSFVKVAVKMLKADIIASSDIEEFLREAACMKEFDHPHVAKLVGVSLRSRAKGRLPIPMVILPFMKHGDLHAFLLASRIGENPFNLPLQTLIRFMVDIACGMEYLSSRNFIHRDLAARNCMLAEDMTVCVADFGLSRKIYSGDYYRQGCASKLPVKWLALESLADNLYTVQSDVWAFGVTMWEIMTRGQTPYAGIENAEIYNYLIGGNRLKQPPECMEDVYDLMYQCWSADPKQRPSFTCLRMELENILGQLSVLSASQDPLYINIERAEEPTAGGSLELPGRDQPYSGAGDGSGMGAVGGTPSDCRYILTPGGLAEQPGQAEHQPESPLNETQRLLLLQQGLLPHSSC
T22 sequence (P32298 whole entry): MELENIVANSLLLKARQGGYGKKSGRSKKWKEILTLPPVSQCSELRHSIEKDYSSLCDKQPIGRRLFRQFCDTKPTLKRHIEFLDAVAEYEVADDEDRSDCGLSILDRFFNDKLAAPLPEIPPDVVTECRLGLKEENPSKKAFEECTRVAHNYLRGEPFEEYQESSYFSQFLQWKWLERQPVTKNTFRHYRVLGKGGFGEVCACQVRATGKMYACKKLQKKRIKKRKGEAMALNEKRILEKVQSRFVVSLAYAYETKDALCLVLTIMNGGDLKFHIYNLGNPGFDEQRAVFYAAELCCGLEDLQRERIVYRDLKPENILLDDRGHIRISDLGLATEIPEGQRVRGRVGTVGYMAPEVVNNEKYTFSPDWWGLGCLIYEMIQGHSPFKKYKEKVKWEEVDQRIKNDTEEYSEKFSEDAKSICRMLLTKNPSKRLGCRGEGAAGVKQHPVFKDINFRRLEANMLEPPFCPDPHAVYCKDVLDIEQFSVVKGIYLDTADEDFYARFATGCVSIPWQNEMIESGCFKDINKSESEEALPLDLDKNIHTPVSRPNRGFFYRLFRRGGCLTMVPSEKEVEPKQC

## COc1cc(/C=C2\N=C(N)NC2=O)ccc1O [Polyandrocarpamine A]
[1]
  Score: 100
[2]
  Score: 86
ABL1-nonphosphorylated
  Score: 90
ADCK3
  Score: 100
AURKA
  Score: 100
BMPR1B
  Score: 42
CAMK1G
  Score: 100
CDK2
  Score: 91
CHEK2
  Score: 100
CSNK1E
  Score: 87
CSNK1G1
  Score: 100
DAPK1
  Score: 79
DCAMKL2
  Score: 100
DCAMKL3
  Score: 94
EGFR
  Score: 99
EGFR(L858R)
  Score: 93
EIF2AK1
  Score: 100
EPHA7
  Score: 100
EPHB3
  Score: 100
ERK8
  Score: 67
FGFR1
  Score: 100
GRK4
  Score: 100
HIPK2
  Score: 50
IGF1R
  Score: 100
JNK1
  Score: 100
JNK2
  Score: 100
JNK3
  Score: 93
KIT(V559D)
  Score: 91
LRRK2(G2019S)
  Score: 100
MAP3K1
  Score: 100
MST1
  Score: 70
MST1R
  Score: 100
MYO3B
  Score: 88
SIK
  Score: 100
TTK
  Score: 100
TYRO3
  Score: 100
p38-alpha
  Score: 100
